# Assay results taken from patent US20240398885A1, “FULL LIGHT REPAIR” (Coty Inc., priority 2021, published 2024).
# What was measured:
# [1] = system: normal human keratinocytes; assay: Comet assay with T4 endonuclease V to detect cyclobutane pyrimidine dimers (CPD) after light exposure; type: cell-based; settings: UVB and visible light; creatine included in the compositions
# Protocol: (§1) Experiments were carried out using the protocol discussed in Chamayou-Robert et al. Photodermatol Photoimmunol Photomed. 2021; 00:1-7. Briefly, experiments were performed on normal human keratinocytes. Cells were exposed to either UVB (280-315 nm), UVA (315-400 nm), visible light, blue light (400-500 nm), or infra-red (760 nm-1 mm) for a time to induce DNA damage. Cells were then treated with the compositions indicated in FIGS. 3(a), 3(b) and 4(a), 4(b) and 4(c), respectively and DNA damage was analyzed by using the comet assay (Wischermann et al. Mutat Res. 2007; 630:122-128; Jean et al. Photochem Photobiol. 2007; 74 (3): 417-423; Azqueta et al. Mutagenesis. 2013; 28:271-277; Chamayou-Robert et al. Photoderm Photoimmun. 2021; 00:1-7) with the use of specific enzymes, formamidopyrimidine DNA glycosylase (FPG) or T4 endonuclease V in order to detect oxidized DNA-bases and cyclobutane pyrimidine dimers (CPD) respectively.
# (§2) Compositions comprising creatine in an amount of 0.5% w/w, Micrococcus Lysate in an amount of 0.0005% w/w and Arabidopsis Thaliana extract in an amount of 0.0005% w/w were tested in this example.
# [2] = system: normal human keratinocytes; assay: Comet assay with formamidopyrimidine DNA glycosylase (FPG) to detect oxidized DNA-bases after light exposure; type: cell-based; settings: UVA, IR and visible light; creatine included in the compositions
# Protocol: as §1, §2
smiles,measurement,setting,value
"CN(CC(=O)O)C(=N)N [creatine, Creatine]",effect on the DNA repair of CPD damage induced by light,[1],boosting effect
same,effect on the DNA repair of oxidative DNA damage induced by light,[2],boosting effect
